pIC50: −log10 of the molar value.
Target: Tyrosine-protein kinase BTK (Homo sapiens, UniProt Q06187)
Experiment: HTRF Assay: An HTRF assay (Cisbio KinEASE-TK cat #62TKOPEC) was performed to quantitate the ability of test compounds to inhibit BTK mediated phosphorylation of substrate. Assays were assembled in 384 well plates where 6 nM of full-length human His-tagged BTK (Life Technologies cat #PV3587) and test compound at varying concentrations were preincubated for 15 minutes at 28° C. Then, 1 uM of TK substrate-biotin and 30 uM ATP were added and incubated for an additional 30 minutes at 28° C. Phospohrylation was detected by adding 62.5 nM Streptavidin-XL665 and TK-Antibody Cryptate diluted 1:100 in HTRF detection buffer (Cisbio cat #62SDBRDF) and incubated for 60 minutes at RT. The plate was read on an Envision plate reader and the fluoresence is measured at 620 nm (cryptate) and 665 nm (XL665). A ratio is calculated (665/620) and converted to POC relative to control and blank wells.Assay Buffer:50 mM HEPES (Invitrogen #15630), 0.01% Brij-35 (sigma #B4184), 10 mM MgC12 (Sigma M1028), 1 mM EGTA.

Tyrosine-protein kinase BTK, sequence (Q06187 whole entry): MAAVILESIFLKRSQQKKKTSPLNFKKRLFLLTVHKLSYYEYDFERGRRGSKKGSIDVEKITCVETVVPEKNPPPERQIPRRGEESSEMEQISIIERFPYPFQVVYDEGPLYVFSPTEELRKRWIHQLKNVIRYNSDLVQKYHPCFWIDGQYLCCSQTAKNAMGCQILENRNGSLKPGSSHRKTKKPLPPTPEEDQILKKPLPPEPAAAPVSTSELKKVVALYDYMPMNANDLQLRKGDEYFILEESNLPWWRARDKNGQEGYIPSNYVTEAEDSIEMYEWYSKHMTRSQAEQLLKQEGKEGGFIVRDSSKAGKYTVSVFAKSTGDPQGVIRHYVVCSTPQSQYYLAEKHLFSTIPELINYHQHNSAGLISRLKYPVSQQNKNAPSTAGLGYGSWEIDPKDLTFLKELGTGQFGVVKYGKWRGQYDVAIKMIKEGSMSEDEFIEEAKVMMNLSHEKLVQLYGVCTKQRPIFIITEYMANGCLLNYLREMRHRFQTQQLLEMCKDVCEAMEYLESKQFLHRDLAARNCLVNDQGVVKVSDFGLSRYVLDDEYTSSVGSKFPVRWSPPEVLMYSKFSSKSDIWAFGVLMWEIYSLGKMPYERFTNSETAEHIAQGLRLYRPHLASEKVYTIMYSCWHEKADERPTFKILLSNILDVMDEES

Q: `C/C=C/C(=O)N1CC2(CC(n3nc(-c4ccc(Oc5ccccc5)cn4)c4c(N)ncnc43)C2)C1` was tested. Which pIC50 did it give?
A: Its pIC50 is 7.19.

Q: `CC#CC(=O)N1CC[C@]2(C1)C[C@H](n1nc(-c3ccc(Oc4ccccc4)cn3)c3c(N)ncnc31)C2` was tested. Which pIC50 did it give?
A: Its pIC50 is 8.40.

Q: How did the pIC50 turn out when `C=CC(=O)N1CC2(CC(n3nc(-c4ccc(Oc5ccccc5)cn4)c4c(N)ncnc43)C2)C1` was run?
A: The pIC50 was 8.80.

Q: How did the pIC50 turn out when `CC#CC(=O)N1CC2(CC(n3nc(-c4ccc(Oc5ccccc5)cn4)c4c(N)ncnc43)C2)C1` was run?
A: Its pIC50 is 9.00.

— ChEMBL document CHEMBL3638507, “Heteroaromatic compounds as BTK inhibitors” (2015)
